Tests used:
[1] = Compound A in clinical setting: treatment-related adverse events; type: in vivo, human; conditions: TRAEs, n = 84
[2] = target: T1, AR V716M (Homo sapiens, UniProt P10275, V716M); assay: AR degradation in T-Rex-293 cell line, V716M; type: cell-based; conditions: T-Rex-293, ELISA
T1 construct: expressed in transfected cells; host or cells: T-REx-293
Text: (§1) FIG. 3 is a graph showing Compound A's ability to degrade clinically relevant mutated forms AR.
(§2) To assess the ability of Compound A to degrade variants of the AR, vectors expressing wild-type AR or mutant AR proteins harboring clinically observed mutations in the ligand binding domain (13 with single amino acid changes or 4 with 2 amino acid changes) (Azad A. A., Volik S. V., Wyatt A. W., et al. Androgen receptor gene aberrations in circulating cell-free DNA: biomarkers of therapeutic resistance in castration-resistant prostate cancer. Clin Cancer Res. 2015; 21:2315-2324; Robinson D., Van Allen E. M., Wu Y. M., et al. Integrative clinical genomics of advanced prostate cancer. Cell. 2015; 161:1215-1228; Ledet E. M., Lilly M. B., Sonpavde G., et al. Comprehensive analysis of AR alterations in circulating tumor DNA from patients with advanced prostate cancer. Oncologist.

[3] = tested on: PSA; assay: intracellular PSA ELISA in VCaP cells; type: cell-based; conditions: Homo sapiens, CSS + 0.1 nM R1881, 48 hours, read-out: IC50, inhibiting PSA expression
Experimental: (§3) Intracellular prostate specific antigen (PSA) levels were determined using a PSA enzyme-linked immunosorbent assay (ELISA). […] The cell proliferation was determined using the CellTiter-Glo® assay. […] The CaspaseGlo® assay was carried out to measure the level of apoptosis in cells.
(§4) To evaluate the pharmacological effect of Compound A in vitro, PSA, cell proliferation, and apoptosis assays were carried out in VCaP cells.

[4] = tested on: VCaP cells; assay: apoptosis in VCaP cells (CaspaseGlo); type: cell-based; conditions: Homo sapiens, CSS + 0.1 nM R1881, 72 hours, read-out: EC50, inducing apoptosis
Experimental: as §3, §4

[5] = target: T2, AR (VCaP cells, AR amplification) (Homo sapiens, UniProt P10275); assay: AR degradation assay and time course in VCaP cells; type: cell-based
T2 construct: endogenous in cells; host or cells: VCaP
T2 sequence (P10275 1-920): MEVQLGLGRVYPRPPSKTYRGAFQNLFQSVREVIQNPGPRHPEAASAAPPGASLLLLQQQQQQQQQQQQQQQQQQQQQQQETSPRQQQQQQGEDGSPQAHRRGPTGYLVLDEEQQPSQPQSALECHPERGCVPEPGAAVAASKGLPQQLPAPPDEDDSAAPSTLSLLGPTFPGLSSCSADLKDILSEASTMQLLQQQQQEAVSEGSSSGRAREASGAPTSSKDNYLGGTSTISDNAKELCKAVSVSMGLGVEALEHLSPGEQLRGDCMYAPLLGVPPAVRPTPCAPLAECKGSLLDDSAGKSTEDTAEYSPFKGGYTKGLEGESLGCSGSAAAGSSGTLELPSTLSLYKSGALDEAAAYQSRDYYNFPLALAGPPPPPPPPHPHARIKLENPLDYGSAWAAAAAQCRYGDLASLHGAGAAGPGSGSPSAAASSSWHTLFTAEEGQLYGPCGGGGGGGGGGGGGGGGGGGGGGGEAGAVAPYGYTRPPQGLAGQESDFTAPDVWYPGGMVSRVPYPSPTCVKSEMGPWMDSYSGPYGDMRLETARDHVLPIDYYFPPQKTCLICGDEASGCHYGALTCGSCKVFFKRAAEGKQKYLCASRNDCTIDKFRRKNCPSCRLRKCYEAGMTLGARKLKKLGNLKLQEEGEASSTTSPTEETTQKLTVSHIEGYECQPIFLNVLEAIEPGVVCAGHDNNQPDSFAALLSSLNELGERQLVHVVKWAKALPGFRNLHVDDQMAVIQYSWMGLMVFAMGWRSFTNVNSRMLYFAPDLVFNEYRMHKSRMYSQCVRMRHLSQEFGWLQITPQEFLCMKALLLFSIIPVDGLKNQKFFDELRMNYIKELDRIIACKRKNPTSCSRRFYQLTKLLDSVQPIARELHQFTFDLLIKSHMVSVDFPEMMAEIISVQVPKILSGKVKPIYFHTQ
Experimental: FIG. 2 is an analysis of Compound A in in vitro AR degradation assays conducted in VCaP cells and LNCaP cancer cells that harbor AR amplification and the AR mutation (T878A) mutation, respectively.
To determine the pharmacological effect of Compound A in vitro, AR degradation assays were conducted in VCaP (vertebral-cancer of the prostate) cancer cells and LNCaP (lymph node carcinoma of the prostate) cancer cells that harbor AR amplification and the AR mutation (T878A) mutation, respectively.
To determine the pharmacological effect of Compound A in vitro, AR degradation assays were conducted in VCaP cells and LNCaP prostate cancer cells that harbor AR amplification and the AR mutation (T878A) mutation, respectively.

[6] = tested on: VCaP tumor xenograft; assay: castrated mouse VCaP xenograft model, tumor growth inhibition; type: in vivo; conditions: castrated mice
Experimental: Treatment groups (n=10 per group) were compared by one-way analysis of variance (ANOVA). Note: ns: not significant, *: p≤0.05, **: p≤0.01, ***: p≤0.001.
The anti-tumor growth effects of Compound A in vivo were evaluated in the castrated mouse VCaP xenograft model. Briefly, 6- to 8-week-old male CB17/scid mice were implanted with 3×10^6 VCaP tumor cells in the flank region. Once the tumors reached a volume of approximately 100 mm^3, the mice were surgically castrated.

[7] = target: T3, AR (Homo sapiens, UniProt P10275); assay: poly-ubiquitination assay; type: cell-based; conditions: with Compound A treatment
T3 sequence (P10275 1-920): T2 sequence (P10275 1-920)

[8] = target: T4, AR W742C (Homo sapiens, UniProt P10275, W742C); assay: AR degradation in T-Rex-293 cell line, W742C; type: cell-based; conditions: T-Rex-293, ELISA
T4 construct: expressed in transfected cells; host or cells: T-REx-293
T4 sequence (P10275 whole entry W742C): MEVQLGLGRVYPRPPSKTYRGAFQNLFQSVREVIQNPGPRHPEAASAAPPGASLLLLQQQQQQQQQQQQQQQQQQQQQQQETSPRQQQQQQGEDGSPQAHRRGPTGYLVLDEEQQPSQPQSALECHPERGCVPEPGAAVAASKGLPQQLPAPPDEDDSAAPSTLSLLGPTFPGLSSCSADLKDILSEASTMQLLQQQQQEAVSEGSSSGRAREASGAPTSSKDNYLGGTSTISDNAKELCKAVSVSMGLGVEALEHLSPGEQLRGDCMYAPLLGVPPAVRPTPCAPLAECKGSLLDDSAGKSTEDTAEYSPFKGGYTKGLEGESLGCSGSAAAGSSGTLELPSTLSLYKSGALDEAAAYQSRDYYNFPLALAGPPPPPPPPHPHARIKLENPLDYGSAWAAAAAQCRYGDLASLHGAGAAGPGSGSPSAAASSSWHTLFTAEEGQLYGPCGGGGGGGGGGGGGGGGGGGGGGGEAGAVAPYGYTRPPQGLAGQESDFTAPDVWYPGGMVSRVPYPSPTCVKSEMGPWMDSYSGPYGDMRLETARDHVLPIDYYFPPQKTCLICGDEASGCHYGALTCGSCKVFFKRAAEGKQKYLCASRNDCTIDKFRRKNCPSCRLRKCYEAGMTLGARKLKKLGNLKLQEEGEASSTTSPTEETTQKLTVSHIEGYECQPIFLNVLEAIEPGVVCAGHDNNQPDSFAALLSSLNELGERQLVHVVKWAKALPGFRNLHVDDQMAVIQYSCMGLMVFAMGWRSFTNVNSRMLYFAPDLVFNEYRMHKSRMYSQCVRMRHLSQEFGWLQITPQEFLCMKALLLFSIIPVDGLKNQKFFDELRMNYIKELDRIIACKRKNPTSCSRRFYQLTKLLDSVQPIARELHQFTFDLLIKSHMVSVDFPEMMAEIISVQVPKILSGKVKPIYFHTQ
Text: as §1, §2

T1 sequence (P10275 whole entry V716M): as the sequence (P10275 whole entry W742C) above, with V716M, C742W counted along it

Compound: COc1cc(O[C@H]2C(C)(C)[C@H](NC(=O)c3ccc(N4CCC(CN5CCN(c6ccc(C(=O)N[C@H]7CCC(=O)NC7=O)c(F)c6)CC5)CC4)cc3)C2(C)C)ccc1C#N [Compound A, 4-(4-((1-(4-(((1R,3R)-3-(4-cyano-3-methoxyphenoxy)-2,2,4,4-tetramethylcyclobutyl)carbamoyl)phenyl)piperidin-4-yl)methyl)piperazin-1-yl)-N—((S)-2,6-dioxopiperidin-3-yl)-2-fluorobenzamide]
- Alopecia: Any Grade [1]: 8 n
- Alopecia: Grade 3+ [1]: 0 (0) n (%)
- Anemia: Any Grade [1]: 3 n
- Anemia: Grade 3+ [1]: 0 (0) n (%)
- Any TRAE: Any Grade [1]: 55 n
- Any TRAE: Grade 3+ [1]: 7 (8) n (%)
- Aspartate Aminotransferase increase: Any Grade [1]: 6 n
- Aspartate Aminotransferase increase: Grade 3+ [1]: 1 (1) n (%)
- Decreased appetite: Any Grade [1]: 9 n
- Decreased appetite: Grade 3+ [1]: 0 (0) n (%)
- Diarrhea: Any Grade [1]: 9 n
- Diarrhea: Grade 3+ [1]: 1 (1) n (%)
- Fatigue: Any Grade [1]: 24 n
- Fatigue: Grade 3+ [1]: 2 (2) n (%)
- Nausea: Any Grade [1]: 12 n
- Nausea: Grade 3+ [1]: 0 (0) n (%)
- Vomiting: Any Grade [1]: 9 n
- Vomiting: Grade 3+ [1]: 0 (0) n (%)
- Weight decrease: Any Grade [1]: 1 n
- Weight decrease: Grade 3+ [1]: 0 (0) n (%)
- DC50 [2]: 0.4 nM
- IC50 [3]: 4 nM
- EC50 [4]: 8 nM
- DC50 ([5]; 24 hours of treatment): < 1 nM
- Dmax ([5]; 24 hours of treatment): ≥ 94%
- elimination of AR from the cell (time course) ([5]; by 6 hours): near complete elimination of AR
- degradation of AR (time course) ([5]; within 2 hours of treatment): > 50%
- TGI relative to vehicle control ([6]; 0.1 mg/kg/day QD for 24 days, statistically insignificant): 45%
- TGI relative to vehicle control ([6]; 0.3 mg/kg/day QD for 24 days, statistically insignificant): 49%
- TGI relative to vehicle control ([6]; 1 mg/kg/day QD for 24 days): 81%
- TGI relative to vehicle control ([6]; 3 mg/kg/day QD for 24 days, oral gavage): 100%
- ubiquitination of the AR [7]: significantly increased
- DC50 [8]: 2.7 nM

From patent publication US20240180900A1, “COMPOUNDS AND METHODS FOR THE TARGETED DEGRADATION OF ANDROGEN RECEPTOR” (Arvinas Operations, Inc., priority 2022, published 2024)
